Laboratory results published in PubChem BioAssay (NCI).
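Exposure lasted 48 hours, with cells grown in 96-well plates and compounds tested at five concentrations. Abbreviation: GI50, concentration required for 50% inhibition of growth. TGI denotes the concentration required for complete inhibition of growth.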

What was measured:
Experiment in all cases: growth of human tumour cells (NCI), 48 h
786-0 renal = tested on: 786-0 renal
A498 renal = tested on: A498 renal
A549 NSCLC = tested on: A549 NSCLC
ACHN renal = tested on: ACHN renal
BT-549 breast = tested on: BT-549 breast
CAKI-1 renal = tested on: CAKI-1 renal
CCRF-CEM leukemia = tested on: CCRF-CEM leukemia
COLO 205 colon = tested on: COLO 205 colon
DU-145 prostate = tested on: DU-145 prostate
EKVX NSCLC = tested on: EKVX NSCLC
HCC-2998 colon = tested on: HCC-2998 colon
HCT-116 colon = tested on: HCT-116 colon
HCT-15 colon = tested on: HCT-15 colon
HL-60(TB) leukemia = tested on: HL-60(TB) leukemia
HOP-62 NSCLC = tested on: HOP-62 NSCLC
HOP-92 NSCLC = tested on: HOP-92 NSCLC
HS 578T breast = tested on: HS 578T breast
HT29 colon = tested on: HT29 colon
IGROV1 ovarian = tested on: IGROV1 ovarian
K-562 leukemia = tested on: K-562 leukemia
KM12 colon = tested on: KM12 colon
LOX IMVI melanoma = tested on: LOX IMVI melanoma
M14 melanoma = tested on: M14 melanoma
MALME-3M melanoma = tested on: MALME-3M melanoma
MCF7 breast = tested on: MCF7 breast
MDA-MB-231 breast = tested on: MDA-MB-231 breast
MDA-MB-435 = tested on: MDA-MB-435
MOLT-4 leukemia = tested on: MOLT-4 leukemia
NCI-H226 lung = tested on: NCI-H226 lung
NCI-H23 lung = tested on: NCI-H23 lung
NCI-H460 lung = tested on: NCI-H460 lung
NCI-H522 lung = tested on: NCI-H522 lung
NCI/ADR-RES ovarian = tested on: NCI/ADR-RES ovarian
OVCAR-3 ovarian = tested on: OVCAR-3 ovarian
OVCAR-4 ovarian = tested on: OVCAR-4 ovarian
OVCAR-5 ovarian = tested on: OVCAR-5 ovarian
OVCAR-8 ovarian = tested on: OVCAR-8 ovarian
PC-3 prostate = tested on: PC-3 prostate
RPMI-8226 leukemia = tested on: RPMI-8226 leukemia
RXF 393 renal = tested on: RXF 393 renal
SF-268 CNS = tested on: SF-268 CNS
SF-295 CNS = tested on: SF-295 CNS
SF-539 CNS = tested on: SF-539 CNS
SK-MEL-2 melanoma = tested on: SK-MEL-2 melanoma
SK-MEL-28 melanoma = tested on: SK-MEL-28 melanoma
SK-MEL-5 melanoma = tested on: SK-MEL-5 melanoma
SK-OV-3 ovarian = tested on: SK-OV-3 ovarian
SN12C renal = tested on: SN12C renal
SNB-19 CNS = tested on: SNB-19 CNS
SNB-75 CNS = tested on: SNB-75 CNS
SR leukemia = tested on: SR leukemia
SW-620 colon = tested on: SW-620 colon
T-47D breast = tested on: T-47D breast
TK-10 renal = tested on: TK-10 renal
U251 CNS = tested on: U251 CNS
UACC-257 melanoma = tested on: UACC-257 melanoma
UACC-62 melanoma = tested on: UACC-62 melanoma
UO-31 renal = tested on: UO-31 renal

## C#CCOc1cccc(Nc2ncnc3ccc(NC(=O)CCl)cc23)c1
786-0 renal
  GI50: 0.208 µM
  TGI: 2.84 µM
A498 renal
  GI50: 4.6 µM
  TGI: 21.4 µM
A549 NSCLC
  GI50: 0.225 µM
  TGI: > 44 µM
ACHN renal
  GI50: 0.253 µM
  TGI: 7.73 µM
BT-549 breast
  GI50: 1.66 µM
  TGI: 10.1 µM
CAKI-1 renal
  GI50: 0.22 µM
  TGI: 12.7 µM
CCRF-CEM leukemia
  GI50: 0.0725 µM
  TGI: > 33.6 µM
COLO 205 colon
  GI50: 0.463 µM
  TGI: 16.8 µM
DU-145 prostate
  GI50: 0.73 µM
  TGI: 14.1 µM
EKVX NSCLC
  GI50: 3.5 µM
  TGI: 23.6 µM
HCC-2998 colon
  GI50: 3.71 µM
  TGI: 22.7 µM
HCT-116 colon
  GI50: 0.0493 µM
  TGI: 5.25 µM
HCT-15 colon
  GI50: 0.0709 µM
  TGI: 15.1 µM
HL-60(TB) leukemia
  GI50: 1.66 µM
  TGI: 19.2 µM
HOP-62 NSCLC
  GI50: 4.2 µM
  TGI: > 53.2 µM
HOP-92 NSCLC
  GI50: 2.9 µM
  TGI: 16.9 µM
HS 578T breast
  GI50: 4.12 µM
  TGI: > 100 µM
HT29 colon
  GI50: 0.0981 µM
  TGI: 6.87 µM
IGROV1 ovarian
  GI50: 0.164 µM
  TGI: 2.77 µM
K-562 leukemia
  GI50: 0.117 µM
  TGI: > 100 µM
KM12 colon
  GI50: 0.776 µM
  TGI: 10.6 µM
LOX IMVI melanoma
  GI50: 0.0933 µM
  TGI: 3.89 µM
M14 melanoma
  GI50: 1.07 µM
  TGI: 18.8 µM
MALME-3M melanoma
  GI50: 3.46 µM
  TGI: 8.63 µM
MCF7 breast
  GI50: 0.428 µM
  TGI: 14.4 µM
MDA-MB-231 breast
  GI50: 1.07 µM
  TGI: 30.8 µM
MDA-MB-435
  GI50: 1.4 µM
  TGI: 20.2 µM
MOLT-4 leukemia
  GI50: 0.0864 µM
  TGI: > 89.5 µM
NCI-H226 lung
  GI50: 7.43 µM
  TGI: > 100 µM
NCI-H23 lung
  GI50: 2.87 µM
  TGI: 29.9 µM
NCI-H460 lung
  GI50: 0.0723 µM
  TGI: 3.08 µM
NCI-H522 lung
  GI50: 0.777 µM
  TGI: 3.97 µM
NCI/ADR-RES ovarian
  GI50: 0.817 µM
  TGI: > 100 µM
OVCAR-3 ovarian
  GI50: 0.908 µM
  TGI: 7.06 µM
OVCAR-4 ovarian
  GI50: 5.49 µM
  TGI: 25.6 µM
OVCAR-5 ovarian
  GI50: 3.04 µM
  TGI: 19.4 µM
OVCAR-8 ovarian
  GI50: 0.353 µM
  TGI: > 65 µM
PC-3 prostate
  GI50: 0.581 µM
  TGI: 12.4 µM
RPMI-8226 leukemia
  GI50: 1.22 µM
  TGI: 13.6 µM
RXF 393 renal
  GI50: 4.47 µM
  TGI: 19 µM
SF-268 CNS
  GI50: 0.674 µM
  TGI: 10.3 µM
SF-295 CNS
  GI50: 2.29 µM
  TGI: 19.8 µM
SF-539 CNS
  GI50: 2.83 µM
  TGI: 7.23 µM
SK-MEL-2 melanoma
  GI50: 4.07 µM
  TGI: 24.1 µM
SK-MEL-28 melanoma
  GI50: 5.15 µM
  TGI: 27 µM
SK-MEL-5 melanoma
  GI50: 3.37 µM
  TGI: 8.9 µM
SK-OV-3 ovarian
  GI50: 2.59 µM
  TGI: > 100 µM
SN12C renal
  GI50: 0.3 µM
  TGI: > 79.8 µM
SNB-19 CNS
  GI50: 1.88 µM
  TGI: 81.9 µM
SNB-75 CNS
  GI50: 1.87 µM
  TGI: > 100 µM
SR leukemia
  GI50: 0.0743 µM
  TGI: 17.9 µM
SW-620 colon
  GI50: 0.0614 µM
  TGI: 5.88 µM
T-47D breast
  GI50: 3.44 µM
  TGI: 30.9 µM
TK-10 renal
  GI50: 2.06 µM
  TGI: 18.1 µM
U251 CNS
  GI50: 0.364 µM
  TGI: 8.23 µM
UACC-257 melanoma
  GI50: 7.49 µM
  TGI: 26 µM
UACC-62 melanoma
  GI50: 1.65 µM
  TGI: 20.3 µM
UO-31 renal
  GI50: 0.312 µM
  TGI: 7.11 µM

## CCN1C(=O)N(c2ccccc2)C2NN=c3s/c(=C4\C(=O)N(C(C)C)c5ccccc54)c(=O)n3C21 (configuration not stated)
786-0 renal
  GI50: 1.95 µM
  TGI: 8.64 µM
A498 renal
  GI50: 0.367 µM
  TGI: 1.64 µM
A549 NSCLC
  GI50: 1.43 µM
  TGI: > 40.5 µM
ACHN renal
  GI50: 1.5 µM
  TGI: > 57.9 µM
BT-549 breast
  GI50: 1.8 µM
  TGI: 18.9 µM
CAKI-1 renal
  GI50: 0.661 µM
  TGI: 8.06 µM
CCRF-CEM leukemia
  GI50: 1.16 µM
  TGI: > 100 µM
COLO 205 colon
  GI50: 0.54 µM
  TGI: 24.5 µM
DU-145 prostate
  GI50: 1.41 µM
  TGI: > 29.4 µM
EKVX NSCLC
  GI50: 1.83 µM
  TGI: > 100 µM
HCC-2998 colon
  GI50: 3.5 µM
  TGI: 61.8 µM
HCT-116 colon
  GI50: 2.18 µM
  TGI: 8.24 µM
HCT-15 colon
  GI50: 0.733 µM
  TGI: > 56.6 µM
HL-60(TB) leukemia
  GI50: 1.03 µM
  TGI: > 23.6 µM
HOP-62 NSCLC
  GI50: 0.689 µM
  TGI: 18.9 µM
HOP-92 NSCLC
  GI50: 1.44 µM
  TGI: > 43.5 µM
HS 578T breast
  GI50: 1.06 µM
  TGI: 21.8 µM
HT29 colon
  GI50: 1.08 µM
  TGI: > 100 µM
IGROV1 ovarian
  GI50: 1.55 µM
  TGI: > 100 µM
K-562 leukemia
  GI50: 0.518 µM
  TGI: > 100 µM
KM12 colon
  GI50: 0.977 µM
  TGI: > 100 µM
LOX IMVI melanoma
  GI50: 2.17 µM
  TGI: 11.2 µM
M14 melanoma
  GI50: 0.979 µM
  TGI: > 35.6 µM
MALME-3M melanoma
  GI50: 1.57 µM
  TGI: > 100 µM
MCF7 breast
  GI50: 0.483 µM
  TGI: > 100 µM
MDA-MB-231 breast
  GI50: 2.51 µM
  TGI: 11.6 µM
MDA-MB-435
  GI50: 0.283 µM
  TGI: 0.991 µM
MOLT-4 leukemia
  GI50: 1.58 µM
  TGI: > 100 µM
NCI-H226 lung
  GI50: 3.7 µM
  TGI: 31.4 µM
NCI-H23 lung
  GI50: 1.47 µM
  TGI: 28.2 µM
NCI-H460 lung
  GI50: 1.16 µM
  TGI: > 38.9 µM
NCI-H522 lung
  GI50: 1.1 µM
  TGI: > 77.9 µM
NCI/ADR-RES ovarian
  GI50: 0.702 µM
  TGI: 3.84 µM
OVCAR-3 ovarian
  GI50: 0.886 µM
  TGI: 3.1 µM
OVCAR-4 ovarian
  GI50: 3.71 µM
  TGI: > 100 µM
OVCAR-5 ovarian
  GI50: 3.38 µM
  TGI: > 100 µM
OVCAR-8 ovarian
  GI50: 2.05 µM
  TGI: > 100 µM
PC-3 prostate
  GI50: 1.45 µM
  TGI: > 77.3 µM
RPMI-8226 leukemia
  GI50: 2.92 µM
  TGI: 18 µM
RXF 393 renal
  GI50: 0.612 µM
  TGI: 2.63 µM
SF-268 CNS
  GI50: 2.1 µM
  TGI: > 100 µM
SF-295 CNS
  GI50: 0.737 µM
  TGI: 4.76 µM
SF-539 CNS
  GI50: 0.736 µM
  TGI: 2.24 µM
SK-MEL-2 melanoma
  GI50: 5.99 µM
  TGI: > 100 µM
SK-MEL-28 melanoma
  GI50: 2.71 µM
  TGI: > 100 µM
SK-MEL-5 melanoma
  GI50: 1.04 µM
  TGI: 15.5 µM
SK-OV-3 ovarian
  GI50: 1.07 µM
  TGI: > 100 µM
SN12C renal
  GI50: 1.86 µM
  TGI: > 100 µM
SNB-19 CNS
  GI50: 2.1 µM
  TGI: > 100 µM
SNB-75 CNS
  GI50: 0.253 µM
  TGI: 4.79 µM
SR leukemia
  GI50: 0.553 µM
  TGI: > 100 µM
SW-620 colon
  GI50: 0.891 µM
  TGI: > 100 µM
T-47D breast
  GI50: 0.716 µM
  TGI: > 100 µM
TK-10 renal
  GI50: 4.84 µM
  TGI: 49.5 µM
U251 CNS
  GI50: 1.44 µM
  TGI: > 51.6 µM
UACC-257 melanoma
  GI50: > 51.8 µM
  TGI: > 100 µM
UACC-62 melanoma
  GI50: 0.626 µM
  TGI: > 100 µM
UO-31 renal
  GI50: 2.35 µM
  TGI: > 100 µM
